From patent US20230073461A1, “C[…]” (BioNTech SE, priority 2020, published 2023)

Experiments:
[1] = Single dose IV PK, metabolism and excretion of LNP lipids in rats; assay type: in vivo; conditions: for drop of concentration in liver / drop of concentration in plasma: two weeks
Description: A single dose PK study of ALC-0315 and […] following intravenous (IV) bolus injection of a nanoparticle formulation in rats was conducted to assess the PK and metabolism of lipid excipients ALC-0315 and ALC-0159.
(§1) In vitro metabolism of ALC-0315 and ALC-0159 was evaluated in blood, liver microsomes, S9 fractions, and hepatocytes from mice, rats, monkeys, and humans. In vivo metabolism was examined in rat plasma, urine, faeces, and liver samples from the PK study. […] ALC-0315 and ALC-0159 are apparently metabolised by hydrolytic metabolism of the ester and amide functionalities, respectively, and this hydrolytic metabolism is observed across the species evaluated.

[2] = In vitro metabolism in blood, liver microsomes, S9 fractions, hepatocytes; assay type: in vitro ADME, mice, rats, monkeys, and humans; conditions: rat samples
Description: as §1

[3] = biological target: human ACE2 peptidase domain (amino acids 1-615 of human ACE2 with C-terminal His-10 and Avi tags) (human) (UniProt Q9BYF1)
Chain of UniProt Q9BYF1 (Q9BYF1 18-615 limits assumed): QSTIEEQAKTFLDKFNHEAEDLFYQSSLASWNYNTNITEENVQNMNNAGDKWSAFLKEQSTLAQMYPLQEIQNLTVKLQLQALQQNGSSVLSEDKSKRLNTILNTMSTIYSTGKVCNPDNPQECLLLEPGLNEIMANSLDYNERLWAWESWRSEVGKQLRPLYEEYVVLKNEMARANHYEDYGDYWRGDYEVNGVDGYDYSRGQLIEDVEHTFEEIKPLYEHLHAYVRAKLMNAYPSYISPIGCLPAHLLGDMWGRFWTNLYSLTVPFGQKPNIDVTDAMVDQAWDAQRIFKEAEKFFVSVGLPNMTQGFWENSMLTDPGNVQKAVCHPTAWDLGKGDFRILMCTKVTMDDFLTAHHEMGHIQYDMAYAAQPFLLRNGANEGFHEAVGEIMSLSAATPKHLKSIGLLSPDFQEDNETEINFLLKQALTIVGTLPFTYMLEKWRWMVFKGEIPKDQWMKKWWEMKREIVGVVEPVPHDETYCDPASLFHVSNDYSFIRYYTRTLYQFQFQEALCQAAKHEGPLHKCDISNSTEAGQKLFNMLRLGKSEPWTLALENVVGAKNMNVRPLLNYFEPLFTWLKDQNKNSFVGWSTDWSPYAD

[4] = biological target: human ACE2 peptidase domain (amino acids 1-615 of human ACE2 with C-terminal His-10 and Avi tags) (human) (UniProt Q9BYF1); experiment: biolayer interferometry; compared with a literature value for monomeric RBD

Row | Molecule | eliminated unchanged in faeces [1] | apparent terminal t½ in plasma and liver ([1]; IV bolus of LNP) | drop of concentration in liver ([1]; IV bolus of LNP) | drop of concentration in plasma ([1]; IV bolus of LNP) | rate of metabolism in vitro and in vivo [2] | half-life ([1]; rat, plasma and liver, IV bolus of LNP, read-out: apparent terminal t½ in plasma and liver) | Kd [3] | fold of the reported KD of monomeric RBD [4]
1 | CCCCCCCCCCCCCCN(CCCCCCCCCCCCCC)C(=O)COCCOCCOCCOCCOCCOCCOCCOCCOCCOCCOCCOCCOCCOCCOCCOCCOCCOCCOCCOCCOCCOCCOCCOCCOCCOCCOCCOCCOCCOCCOCCOCCOCCOCCOCCOCCOCCOCCOCCOCCOCCOCCOCCOCCOCCOC [ALC-0159, 2-[(polyethylene glycol)-2000]-N,N-ditetradecylacetamide] | 50% | 48 to 72 h | > 250 fold | approximately 8000 fold | relatively slowly | – | – | –
2 | CCCCCCCCC(CCCCCC)C(=O)OCCCCCCN(CCCCO)CCCCCCOC(=O)C(CCCCCC)CCCCCCCC (stereo not drawn) [ALC-0315, ((4-hydroxybutyl)azanediyl)bis(hexane-6,1-diyl)bis(2-hexyldecanoate)] | little to no unchanged material | – | ~4 fold | approximately 7000 fold | relatively slowly | 144 to 192 h | – | –
3 | RBD-foldon trimer encoded by BNT162b1 (SARS-CoV-2 spike receptor-binding domain fused at its C-termi (other; other documents disagree on this pair) | – | – | – | – | – | – | 5 pM | 1000 fold
